Test results: patent US6924302B2, “Substituted triazole diamine derivatives as kinase inhibitors” (Ortho McNeil Pharmaceutical, Inc., priority 2000, dated 2005)
Like-named read-outs stand apart in the source and are kept apart here.

Key:
[1] = test system: HeLa cervical adenocarcinoma; assay: Inhibition of Cell Proliferation (14C-thymidine incorporation), HeLa; format: cell-based; details: Homo sapiens, HeLa cell line
Protocol: (§1) The ability of a test compound to inhibit the proliferation of cell growth was determined by measuring incorporation of ^14C-labelled thymidine into newly synthesized DNA within the cells. This method was used on cell lines derived from carcinomas originating from several tissues such as HeLa cervical adenocarcinoma (American Type Culture Collection (ATCC), Virginia, Cat. #CCL-2), A375 malignant melanoma (ATCC CRL-1619), SK-OV-3 ovarian adenocarcinoma (ATCC HTB-77) HCT-116 colon carcinoma (CCL-247), PC-3 prostate adenocarcinoma (ATCC CRL-1435), and MDA-MB-231 (Xenogen Corp.) In this way the effect of a compound on cell growth of cells with many different phenotypes can be determined. Cells were trypsinized and counted and 3000-8000 cells were added to each well of a 96-well CytoStar tissue culture treated scintillating microplate (Amersham #RPNQ0160) in complete medium in a volume of 100 μl. Cells were incubated for 24 hours in complete medium at 37° C. in an atmosphere containing 5% CO2. Next, 1 μl of test compound in 100% DMSO was added to the wells of the plate. DMSO only was added to control wells. Cells were incubated for 24 more hours in complete medium at 37° C. in an atmosphere containing 5% CO2. Methyl ^14C-thymidine 56 mCi/mmol (NEN #NEC568 or Amersham #CFA532) was diluted in complete medium and 0.2 uCi/well was added to each well of the CytoStar plate in a volume of 20 μl. The plate was incubated for 24 hours at 37° C. plus 5% CO2 in drug plus ^14C-thymidine. The contents of the plate were discarded into a ^14C radioactive waste container by inverting the plate and the plate was washed twice with 200 μl PBS. 200 μl of PBS is added to each well. The top of the plate was sealed with a transparent plate sealer and a white plate backing sealer (Packard #6005199) was applied to the bottom of the plate. The degree of methyl ^14C-thymidine incorporation was quantified on a Packard Top Count.

Protein Kinase A = target: T1, Protein Kinase A (Bos taurus, UniProt P00517); assay: Kinase Selectivity Assay Protein Kinase A; format: biochemical, bovine; details: Kinase Selectivity, Tables 2a-2k; read-out: PKA IC50
T1 construct: purified from bovine heart; purchased Upstate Biotech 14-114; host or cells: bovine heart
In short: (§2)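 Inhibition was measured as reduced ^33P-γ-ATP labelling of a biotinylated peptide substrate immobilized on streptavidin plates after one hour at 30° C.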

[2] = target: T2, MAP Kinase (ERK-2 isoform) (Rattus norvegicus, UniProt P63086); assay: Kinase Selectivity Assay MAP Kinase (ERK-2); format: biochemical; details: Kinase Selectivity, Tables 2a-2k; read-out: ERK 2 IC50
T2 construct: polyhistidine (N); host or cells: E. coli
T2 sequence (P63086 whole entry, canonical isoform): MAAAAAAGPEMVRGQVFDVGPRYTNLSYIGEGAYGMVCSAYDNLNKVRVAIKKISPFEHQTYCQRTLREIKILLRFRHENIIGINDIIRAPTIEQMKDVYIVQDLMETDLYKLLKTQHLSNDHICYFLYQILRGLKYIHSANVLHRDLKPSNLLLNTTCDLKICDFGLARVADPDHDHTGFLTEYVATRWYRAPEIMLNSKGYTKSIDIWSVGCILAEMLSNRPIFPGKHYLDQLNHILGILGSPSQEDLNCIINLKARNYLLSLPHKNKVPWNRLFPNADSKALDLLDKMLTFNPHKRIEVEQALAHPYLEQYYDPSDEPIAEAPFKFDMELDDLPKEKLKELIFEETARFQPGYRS
In short: as §2

[3] = target: T3, VEGF-R (vascular endothelial growth factor receptor-2) (Rattus norvegicus, UniProt O08775); assay: VEGF-R Screening Assay; format: biochemical; details: read-out: VEGF-R IC50
T3 construct: polyhistidine (6xHIS) (N)
T3 sequence (O08775 786-1343): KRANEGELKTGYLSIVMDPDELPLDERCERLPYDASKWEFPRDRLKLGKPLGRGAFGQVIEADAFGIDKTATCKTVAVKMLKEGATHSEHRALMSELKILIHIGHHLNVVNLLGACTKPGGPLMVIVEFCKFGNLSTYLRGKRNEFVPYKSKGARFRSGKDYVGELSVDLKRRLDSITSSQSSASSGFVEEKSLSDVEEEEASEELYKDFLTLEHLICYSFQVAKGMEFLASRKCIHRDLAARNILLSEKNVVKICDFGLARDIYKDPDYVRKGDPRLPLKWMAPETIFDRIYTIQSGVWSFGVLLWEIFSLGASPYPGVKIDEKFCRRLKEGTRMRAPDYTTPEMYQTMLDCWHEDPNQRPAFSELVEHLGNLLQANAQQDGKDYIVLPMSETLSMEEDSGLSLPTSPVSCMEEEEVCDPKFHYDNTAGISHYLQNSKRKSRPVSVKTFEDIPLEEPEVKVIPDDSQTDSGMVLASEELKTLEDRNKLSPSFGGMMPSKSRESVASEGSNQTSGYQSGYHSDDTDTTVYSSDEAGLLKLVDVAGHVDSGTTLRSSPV

[4] = target: T4, PDGF-R (platelet derived growth factor receptor) beta subunit kinase domain (Homo sapiens, UniProt P09619); assay: Kinase Selectivity Assay PDGF-R; format: biochemical; details: Kinase Selectivity, Tables 2a-2k; read-out: PDGF-R kinase IC50
T4 construct: nucleotides 1874-3507 of the human PDGF-R beta subunit kinase domain; polyhistidine (N)
T4 sequence (P09619 564-1106): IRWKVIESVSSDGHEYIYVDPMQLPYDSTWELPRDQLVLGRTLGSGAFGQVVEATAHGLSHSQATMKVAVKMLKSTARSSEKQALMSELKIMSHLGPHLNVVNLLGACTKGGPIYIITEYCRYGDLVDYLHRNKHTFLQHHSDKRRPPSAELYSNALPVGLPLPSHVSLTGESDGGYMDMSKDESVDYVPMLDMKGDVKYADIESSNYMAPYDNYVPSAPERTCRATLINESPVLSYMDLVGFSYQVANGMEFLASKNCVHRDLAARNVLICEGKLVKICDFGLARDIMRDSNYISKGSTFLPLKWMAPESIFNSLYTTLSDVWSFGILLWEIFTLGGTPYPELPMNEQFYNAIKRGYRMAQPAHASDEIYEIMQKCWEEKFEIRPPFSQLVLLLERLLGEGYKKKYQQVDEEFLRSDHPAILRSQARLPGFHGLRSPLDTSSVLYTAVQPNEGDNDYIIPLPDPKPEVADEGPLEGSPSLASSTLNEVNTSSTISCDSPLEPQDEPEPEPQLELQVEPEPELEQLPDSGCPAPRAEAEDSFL
In short: as §2

[5] = test system: PC-3 prostate adenocarcinoma; assay: Inhibition of Cell Proliferation (14C-thymidine incorporation), PC-3; format: cell-based; details: Homo sapiens, PC-3 cell line
Protocol: as §1

[6] = target: T5, Glycogen Synthase Kinase-3 (beta isoform) (Oryctolagus cuniculus, UniProt G1T8E2); assay: Kinase Selectivity Assay Glycogen Synthase Kinase-3; format: biochemical, rabbit; details: Kinase Selectivity, Tables 2a-2k; read-out: GSK-3 IC50
T5 construct: purchased New England Biolabs 6040; host or cells: E. coli
T5 sequence (G1T8E2 1-432): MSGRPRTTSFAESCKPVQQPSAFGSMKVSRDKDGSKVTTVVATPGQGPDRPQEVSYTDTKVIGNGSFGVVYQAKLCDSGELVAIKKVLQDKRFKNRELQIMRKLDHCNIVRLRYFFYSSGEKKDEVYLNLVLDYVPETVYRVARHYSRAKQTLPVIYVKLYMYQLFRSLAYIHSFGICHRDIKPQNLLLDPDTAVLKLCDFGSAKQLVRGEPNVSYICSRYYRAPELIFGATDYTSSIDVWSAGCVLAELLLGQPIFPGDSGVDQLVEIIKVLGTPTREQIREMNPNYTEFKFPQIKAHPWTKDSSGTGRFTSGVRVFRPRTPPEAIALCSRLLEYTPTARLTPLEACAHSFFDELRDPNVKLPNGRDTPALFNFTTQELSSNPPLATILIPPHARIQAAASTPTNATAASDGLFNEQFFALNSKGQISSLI
In short: as §2

A375 malignant melanoma = assay: Inhibition of Cell Proliferation (14C-thymidine incorporation), A375; format: cell-based; details: Homo sapiens, A-375, A375 cell line
Protocol: as §1

[7] = Kinase Selectivity, Tables 2a-2k

Row | SMILES | IC50 [1] [nM] | IC50 (Protein Kinase A) [nM] | IC50 [2] [nM] | IC50 [3, 7] [nM] | IC50 ([3]; Table 1) [nM] | IC50 [4] [nM] | IC50 [5] [nM] | IC50 [6] [nM] | IC50 (A375 malignant melanoma) [nM]
1 | CCc1ccc(C(=O)n2nc(Nc3ccc(S(N)(=O)=O)cc3)nc2N)s1 [Cpd 32, 4-[[5-amino-1-[(5-ethyl-2-thienyl)carbonyl]-1H-1,2,4-triazol-3-yl]amino]-benzenesulfonamide] | 71 | > 100000 | 563 | 22 | 21.9 | 74 | 30 | 3 | –
2 | Cc1nc(C)c(C(=O)n2nc(Nc3ccc(S(N)(=O)=O)cc3)nc2N)s1 [Cpd 34, 4-[[5-amino-1-[(2,4-dimethyl-5-thiazolyl)carbonyl]-1H-1,2,4-triazol-3-yl]amino]-benzenesulfonamide] | 707 | > 100000 | > 10000 | – | – | 292 | 626 | 15 | –
3 | Nc1nc(Nc2ccc(S(N)(=O)=O)cc2)nn1C(=O)c1sccc1Br [Cpd 35, 4-[[5-amino-1-[(3-bromo-2-thienyl)carbonyl]-1H-1,2,4-triazol-3-yl]amino]-benzenesulfonamide] | 663 | – | – | – | 46.3 | – | 231 | – | –
4 | Nc1nc(Nc2ccc(S(N)(=O)=O)cc2)nn1C(=O)C1CCCC1 [Cpd 38, 4-[[5-amino-1-(cyclopentylcarbonyl)-1H-1,2,4-triazol-3-yl]amino]-benzenesulfonamide] | 4560 | > 100000 | 24200 | – | – | 6370 | 2750 | 122 | –
5 | Nc1nc(Nc2ccc(S(N)(=O)=O)cc2)nn1C(=O)C1CCCCC1 [Cpd 39, 4-[[5-amino-1-(cyclohexylcarbonyl)-1H-1,2,4-triazol-3-yl]amino]-benzenesulfonamide] | 270 | > 100000 | 13200 | – | – | 3980 | 625 | 127 | –
6 | Cc1ccccc1C(=O)n1nc(Nc2ccc(S(N)(=O)=O)cc2)nc1N [Cpd 57, 4-[[5-amino-1-(2-methylbenzoyl)-1H-1,2,4-triazol-3-yl]amino]-benzenesulfonamide] | 339 | > 100000 | > 100000 | – | – | 4190 | – | 98 | 113
7 | CN1CCN(c2ccc(Nc3nc(N)n(C(=O)c4c(F)cccc4F)n3)cc2)CC1 [Cpd 71, 1-(2,6-difluorobenzoyl)-N^3-[4-(4-methyl-1-piperazinyl)phenyl]-1H-1,2,4-triazole-3,5-diamine] | 1920 | > 100000 | > 100000 | 430 | 430 | 27000 | 25 | 1720 | –
8 | CNS(=O)(=O)c1ccc(Nc2nc(N)n(C(=O)c3c(F)cccc3F)n2)cc1 [Cpd 80, 4-[[5-amino-1-(2,6-difluorobenzoyl)-1H-1,2,4-triazol-3-yl]amino]-N-methyl-benzenesulfonamide] | 880 | – | – | – | 935 | – | 272 | – | –
9 | CNS(=O)(=O)c1ccc(Nc2nc(N)n(C(=O)c3sccc3C)n2)cc1 [Cpd 82, 4-[[5-amino-1-[(3-methyl-2-thienyl)carbonyl]-1H-1,2,4-triazol-3-yl]amino]-N-methyl-benzenesulfonamide] | 245 | > 100000 | 1950 | – | – | 42 | 15 | 25 | –
10 | CCc1ccc(C(=O)n2nc(Nc3ccc(S(=O)(=O)NC)cc3)nc2N)s1 [Cpd 84, 4-[[5-amino-1-[(5-ethyl-2-thienyl)carbonyl]-1H-1,2,4-triazol-3-yl]amino]-N-methyl-benzenesulfonamide] | 142 | 2200 | 1220 | – | – | 280 | 23 | 19 | –
11 | CCc1ccc(C(=O)n2nc(Nc3ccc(S(=O)(=O)NCCN(C)C)cc3)nc2N)s1 [Cpd 103, 4-[[5-amino-1-[(5-ethyl-2-thienyl)carbonyl]-1H-1,2,4-triazol-3-yl]amino]-N-[2-(dimethylamino)ethyl]-benzenesulfonamide] | 62 | > 100000 | 845 | 45 | 44.9 | 702 | – | 13 | 115
12 | Cc1ccsc1C(=O)n1nc(Nc2ccc(S(=O)(=O)NCCN(C)C)cc2)nc1N [Cpd 104, 4-[[5-amino-1-[(3-methyl-2-thienyl)carbonyl]-1H-1,2,4-triazol-3-yl]amino]-N-[2-(dimethylamino)ethyl]-benzenesulfonamide] | 186 | > 100000 | > 100000 | – | – | 192 | – | 20 | 108
13 | Cc1cc(C)c(C(=O)n2nc(Nc3ccc(NS(C)(=O)=O)cc3)nc2N)s1 [Cpd 108, N-[4-[[5-amino-1-[(3,5-dimethyl-2-thienyl)carbonyl]-1H-1,2,4-triazol-3-5 yl]amino]phenyl]-methanesulfonamide] | – | – | 2390 | 30 | 30.7 | 217 | – | 23 | –
14 | Cc1ccsc1C(=O)n1nc(Nc2ccc(N3CCNC3=O)cc2)nc1N [Cpd 113, 1-[4-[[5-amino-1-[(3-methyl-2-thienyl)carbonyl]-1H-1,2,4-triazol-3-yl]amino]phenyl]-2-imidazolidinone] | 242 | > 100000 | > 100000 | 30 | 30.2 | 370 | – | 71 | –
15 | Cc1ccsc1C(=O)n1nc(Nc2ccc(N3CCCS3(=O)=O)cc2)nc1N [Cpd 116, N^3-[4-(1,1-dioxido-2-isothiazolidinyl)phenyl]-1-[(3-methyl-2-thienyl)carbonyl]-1H-1,2,4-triazole-3,5-diamine] | 380 | > 100000 | > 100000 | 26 | 26.1 | 302 | – | 62 | 639
16 | Nc1nc(Nc2ccc(N3CCCS3(=O)=O)cc2)nn1C(=O)c1c(F)cccc1F [Cpd 117] | 2060 | > 100000 | > 100000 | 908 | 908 | > 100000 | – | 1040 | 2190
17 | Nc1nc(Nc2ccc(S(=O)(=O)Nc3ccccn3)cc2)nn1C(=O)c1c(F)cccc1F [Cpd 118, 4-[[5-amino-1-(2,6-difluorobenzoyl)-1H-1,2,4-triazol-3-yl]amino]-N-(2-pyridinyl)-benzenesulfonamide] | 1940 | > 100000 | > 100000 | 397 | 397 | > 100000 | – | 159 | 1620
18 | Cc1cc(C)c(C(=O)n2nc(Nc3ccc(S(=O)(=O)Nc4ccccn4)cc3)nc2N)s1 [Cpd 120] | 978 | > 100000 | > 100000 | 82 | 82 | 822 | – | 18 | 259
19 | Cc1ccc(F)c(C(=O)n2nc(N)nc2Nc2ccc(S(N)(=O)=O)cc2)c1F [Cpd 123, 4-[[3-amino-1-(2,6-difluoro-3-methylbenzoyl)-1H-1,2,4-triazol-5-yl]amino]-benzenesulfonamide] | 28500 | > 100000 | > 100000 | – | – | > 100000 | – | 3010 | > 10000
